Experimental data published in patent publication US20230065745A1, “PIPERIDINE-2,6-DIONE DERIVATIVES WHICH BIND TO CEREBLON, AND METHODS OF USE THEREOF” (Captor Therapeutics S.A., priority 2019, published 2023).

Tests used:
[1] = molecular target: CRBN-DDB1 protein complex (Homo sapiens, UniProt Q96SW2); test: Fluorescence Polarization (FP) assay, displacement of Cy5-labelled thalidomide; settings: 25 nM CRBN-DDB1, 5 nM Cy5-labelled thalidomide, read-out: CRBN binding Ki
Description: CRBN-DDB1 protein complex was mixed with Cy5-labelled thalidomide and a compound to be tested (the “test compound”). […] The test solution was added to a 384-well assay plate.
The plate was spun-down (1 min, 1000 rpm, 22° C.) and then shaken using a VibroTurbulator for 10 min at room temperature (20-25° C.), with the frequency set to level 3. The assay plate with protein and the tracer was incubated for 60 min at room temperature (20-25° C.) prior to read-out with a plate reader.
The FP experiment was carried out with various concentrations of the test compounds in order to measure Ki values.

[2] = tested on: IKZF1; test: IKZF1 degradation assay, H929 cell line (Western blot densitometry); type: cell-based; settings: 20 μM
Description: Cells were seeded on 6- or 12-well plates, and the compounds to be tested were added at the desired concentration range. […] After 6 or 24 h incubation (3TC, 5% CO2), cells were harvested, washed and cell lysates were prepared using RIPA lysis buffer. The amount of protein was determined via BCA assay, and the appropriate quantity was then loaded on the precast gel for the protein separation. After primary and secondary Ab staining, the membranes were washed and signals developed. The densitometry analysis was implemented to obtain the numeric values used later in the protein level evaluation process. […] The treatment with all compounds was carried out for 24 h.

Chain of CRBN-DDB1 protein complex (Q96SW2 whole entry): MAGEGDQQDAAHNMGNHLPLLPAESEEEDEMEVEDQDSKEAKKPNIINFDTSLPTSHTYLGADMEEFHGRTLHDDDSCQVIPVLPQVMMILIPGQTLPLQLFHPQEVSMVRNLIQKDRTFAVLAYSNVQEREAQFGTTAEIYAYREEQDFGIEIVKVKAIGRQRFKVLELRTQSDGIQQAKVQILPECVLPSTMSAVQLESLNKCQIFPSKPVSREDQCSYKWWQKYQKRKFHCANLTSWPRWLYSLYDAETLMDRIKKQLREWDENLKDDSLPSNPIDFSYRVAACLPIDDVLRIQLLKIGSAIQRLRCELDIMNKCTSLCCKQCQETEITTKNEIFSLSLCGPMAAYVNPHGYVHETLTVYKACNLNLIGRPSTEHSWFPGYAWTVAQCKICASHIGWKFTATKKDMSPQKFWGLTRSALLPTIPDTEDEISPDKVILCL
Chain of CRBN-DDB1 protein complex (Q16531 whole entry partner): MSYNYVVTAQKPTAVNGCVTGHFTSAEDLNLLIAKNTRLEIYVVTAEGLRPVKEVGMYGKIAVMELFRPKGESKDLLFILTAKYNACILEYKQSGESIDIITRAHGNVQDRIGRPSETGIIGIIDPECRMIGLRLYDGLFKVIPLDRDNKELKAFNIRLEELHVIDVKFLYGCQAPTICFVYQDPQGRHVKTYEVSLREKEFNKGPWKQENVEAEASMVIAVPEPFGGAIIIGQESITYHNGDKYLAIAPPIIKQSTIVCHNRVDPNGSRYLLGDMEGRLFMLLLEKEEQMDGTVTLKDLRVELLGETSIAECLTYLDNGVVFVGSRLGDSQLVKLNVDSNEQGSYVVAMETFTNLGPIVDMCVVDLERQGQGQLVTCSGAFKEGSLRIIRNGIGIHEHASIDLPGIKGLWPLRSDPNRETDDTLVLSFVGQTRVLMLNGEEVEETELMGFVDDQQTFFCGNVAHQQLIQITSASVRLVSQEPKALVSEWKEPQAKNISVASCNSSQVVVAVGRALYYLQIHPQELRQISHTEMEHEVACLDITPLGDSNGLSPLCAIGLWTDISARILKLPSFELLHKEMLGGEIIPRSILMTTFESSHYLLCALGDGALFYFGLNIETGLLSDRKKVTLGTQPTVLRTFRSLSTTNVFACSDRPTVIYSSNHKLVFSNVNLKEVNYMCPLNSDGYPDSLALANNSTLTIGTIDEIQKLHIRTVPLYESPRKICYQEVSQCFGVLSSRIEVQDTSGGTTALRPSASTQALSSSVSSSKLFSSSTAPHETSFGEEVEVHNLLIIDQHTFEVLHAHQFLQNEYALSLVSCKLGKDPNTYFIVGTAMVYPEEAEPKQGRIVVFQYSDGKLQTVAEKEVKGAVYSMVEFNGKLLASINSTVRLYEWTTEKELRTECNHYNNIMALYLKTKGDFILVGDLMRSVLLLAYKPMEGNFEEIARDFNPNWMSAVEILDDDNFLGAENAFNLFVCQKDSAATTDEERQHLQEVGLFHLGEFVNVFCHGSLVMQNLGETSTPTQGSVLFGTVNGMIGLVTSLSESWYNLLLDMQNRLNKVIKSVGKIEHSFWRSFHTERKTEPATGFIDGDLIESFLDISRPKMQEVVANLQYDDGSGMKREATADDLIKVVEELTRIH

SMILES | Ki [1] [µM] | % of IKZF1 protein reduction, IKZF 1 (24 H, 20 μM) [2]
CC(C)(C)OC(=O)Nc1sccc1C(=O)NC1CCC(=O)NC1=O (stereo not shown) [Compound 1, tert-butyl (3-((2,6-dioxopiperidin-3-yl)carbamoyl)thiophen-2-yl)carbamate] | 10 to 50 | ≤25% (≤25% for 0-25% of IKZF1 protein reduction)
CC(=O)N(C)c1sccc1C(=O)NC1CCC(=O)NC1=O (stereo not shown) [Compound 2, N-(2,6-dioxopiperidin-3-yl)-2-(N-methylacetamido)thiophene-3-carboxamide] | – | ≤25% (≤25% for 0-25% of IKZF1 protein reduction)
CC(=O)Nc1sccc1C(=O)N(C)C1CCC(=O)NC1=O (stereo not shown) [Compound 5, N-(2,6-dioxopiperidin-3-yl)-2-acetamido-N-methylthiophene-3-carboxamide] | 10 to 50 | ≤25% (≤25% for 0-25% of IKZF1 protein reduction)
COc1csc(NC(C)=O)c1C(=O)NC1CCC(=O)NC1=O (stereo not shown) [Compound 8, N-(2,6-dioxopiperidin-3-yl)-2-acetamido-4-methoxythiophene-3-carboxamide] | 5 to 10 | ≤25% (≤25% for 0-25% of IKZF1 protein reduction)
CC(=O)Nc1sc(Cl)cc1C(=O)NC1CCC(=O)NC1=O (stereo not shown) [Compound 12, 5-Chloro-N-(2,6-dioxopiperidin-3-yl)-2-acetamidothiophene-3-carboxamide] | 5 to 10 | ≤25% (≤25% for 0-25% of IKZF1 protein reduction)
CS(=O)(=O)Nc1sccc1C(=O)NC1CCC(=O)NC1=O (stereo not shown) [Compound 13, N-(2,6-dioxopiperidin-3-yl)-2-methanesulfonamidothiophene-3-carboxamide] | 5 to 10 | ≤25% (≤25% for 0-25% of IKZF1 protein reduction)
CNC(=O)c1cc(C(=O)NC2CCC(=O)NC2=O)c(NC(C)=O)s1 (stereo not shown) [Compound 14, 5-acetamido-N^4-(2,6-dioxopiperidin-3-yl)-5-acetamido-N^2-methylthiophene-2,4-dicarboxamide] | 5 to 10 | ≤25% (≤25% for 0-25% of IKZF1 protein reduction)
C[C@H](O)C(=O)Nc1sc(Cl)cc1C(=O)NC1CCC(=O)NC1=O (stereo partly drawn) [Compound 17, 5-chloro-N-(2,6-dioxopiperidin-3-yl)-2-[(2S)-2-hydroxypropanamido]thiophene-3-carboxamide] | 10 to 50 | ≤25% (≤25% for 0-25% of IKZF1 protein reduction)
CC(=O)Nc1cc(Cl)sc1C(=O)NC1CCC(=O)NC1=O (stereo not shown) [Compound 18, 5-chloro-N-(2,6-dioxopiperidin-3-yl)-3-acetamidothiophene-2-carboxamide] | 10 to 50 | ≤25% (≤25% for 0-25% of IKZF1 protein reduction)
CC(=O)Nc1sc(C2CC2)c(Cl)c1C(=O)NC1CCC(=O)NC1=O (stereo not shown) [Compound 19, 4-chloro-5-cyclopropyl-N-(2,6-dioxopiperidin-3-yl)-2-acetamidothiophene-3-carboxamide] | 5 to 10 | ≤25% (≤25% for 0-25% of IKZF1 protein reduction)
O=C1CCC(NC(=O)c2ccsc2-n2cccc2)C(=O)N1 (stereo not shown) [Compound 41, N-(2,6-dioxopiperidin-3-yl)-2-(1H-pyrrol-1-yl)thiophene-3-carboxamide] | – | ≤25% (≤25% for 0-25% of IKZF1 protein reduction)
CC(=O)Nc1sc(C(F)(F)F)cc1C(=O)NC1CCC(=O)NC1=O (stereo not shown) [Compound 42, N-(2,6-dioxopiperidin-3-yl)-2-acetamido-5-(trifluoromethyl)thiophene-3-carboxamide] | 5 to 10 | ≤25% (≤25% for 0-25% of IKZF1 protein reduction)
CC(=O)Nc1scc(Cl)c1C(=O)NC1CCC(=O)NC1=O (stereo not shown) [Compound 43, 4-chloro-N-(2,6-dioxopiperidin-3-yl)-2-acetamidothiophene-3-carboxamide] | 10 to 50 | ≤25% (≤25% for 0-25% of IKZF1 protein reduction)
O=C1CCC(NC(=O)c2cc(Cl)sc2NC(=O)c2ccccc2)C(=O)N1 (stereo not shown) [Compound 45, 2-benzamido-5-chloro-N-(2,6-dioxopiperidin-3-yl)thiophene-3-carboxamide] | – | >25% (>25% for 26-74% of IKZF1 protein reduction)
O=C1CCC(NC(=O)c2cc(Cl)sc2NC(=O)Cc2ccccc2)C(=O)N1 (stereo not shown) [Compound 46, 5-chloro-N-(2,6-dioxopiperidin-3-yl)-2-(2-phenylacetamido)thiophene-3-carboxamide] | 5 to 10 | ≤25% (≤25% for 0-25% of IKZF1 protein reduction)
O=C1CCC(NC(=O)c2cnc(C(F)(F)F)s2)C(=O)N1 (stereo not shown) [Compound 72, N-(2,6-dioxopiperidin-3-yl)-2-(trifluoromethyl)thiazole-5-carboxamide] | – | ≤25% (≤25% for 0-25% of IKZF1 protein reduction)
COc1scnc1C(=O)NC1CCC(=O)NC1=O (stereo not shown) [Compound 79, N-(2,6-dioxopiperidin-3-yl)-5-methoxythiazole-4-carboxamide] | 5 to 10 | –
O=C1CCC(NC(=O)c2ncsc2C2CC2)C(=O)N1 (stereo not shown) [Compound 82, 5-Cyclopropyl-N-(2,6-dioxopiperidin-3-yl)thiazole-4-carboxamide] | 10 to 50 | –
O=C1CCC(NC(=O)c2c[nH]c3nccc(Cl)c23)C(=O)N1 (stereo not shown) [Compound 97, 4-chloro-N-(2,6-dioxopiperidin-3-yl)-1H-pyrrolo[2,3-b]pyridine-3-carboxamide] | 5 to 10 | –
Cn1cc(C(=O)NC2CCC(=O)NC2=O)c2cccnc21 (stereo not shown) [Compound 98, N-(2,6-dioxopiperidin-3-yl)-1-methyl-1H-pyrrolo[2,3-b]pyridine-3-carboxamide] | 10 to 50 | –
O=C1CCC(NC(=O)c2c[nH]c3ncc(Cl)cc23)C(=O)N1 (stereo not shown) [Compound 99, 5-chloro-N-(2,6-dioxopiperidin-3-yl)-1H-pyrrolo[2,3-b]pyridine-3-carboxamide] | 5 to 10 | –
CC(=O)Nc1sc2c(c1C(=O)NC1CCC(=O)NC1=O)CCCC2 (stereo not shown) [Compound 105, N-(2,6-dioxopiperidin-3-yl)-2-acetamido-4,5,6,7-tetrahydro-1-benzothiophene-3-carboxamide] | – | ≤25% (≤25% for 0-25% of IKZF1 protein reduction)
Nc1ncc(C(=O)NC2CCC(=O)NC2=O)s1 (stereo not shown) [Compound 112, 2-amino-N-(2,6-dioxopiperidin-3-yl)thiazole-5-carboxamide] | 5 to 10 | –

Further lines, with some results ahead:

Ki [1] [µM] | SMILES | % of IKZF1 protein reduction, IKZF 1 (24 H, 20 μM) [2]
< 5 | CCCCC(=O)Nc1sc(Cl)cc1C(=O)NC1CCC(=O)NC1=O (stereo not shown) [Compound 3, 5-chloro-N-(2,6-dioxopiperidin-3-yl)-2-pentanamidothiophene-3-carboxamide] | ≤25% (≤25% for 0-25% of IKZF1 protein reduction)
< 5 | O=C1CCC(NC(=O)c2cc(Cl)sc2NC(=O)C2CC2)C(=O)N1 (stereo not shown) [Compound 6, 5-chloro-2-cyclopropaneamido-N-(2,6-dioxopiperidin-3-yl)thiophene-3-carboxamide] | ≤25% (≤25% for 0-25% of IKZF1 protein reduction)
5 to 10 | CC(=O)Nc1ccsc1C(=O)NC1CCC(=O)NC1=O (stereo not shown) [Compound 7, N-(2,6-dioxopiperidin-3-yl)-3-acetamidothiophene-2-carboxamide] | ≤25% (≤25% for 0-25% of IKZF1 protein reduction)
< 5 | CC(=O)Nc1sc(C#N)cc1C(=O)NC1CCC(=O)NC1=O (stereo not shown) [Compound 9, 5-cyano-N-(2,6-dioxopiperidin-3-yl)-2-acetamidothiophene-3-carboxamide] | ≤25% (≤25% for 0-25% of IKZF1 protein reduction)
< 5 | CNc1sc(Cl)cc1C(=O)NC1CCC(=O)NC1=O (stereo not shown) [Compound 16, 5-chloro-N-(2,6-dioxopiperidin-3-yl)-2-(methylamino)thiophene-3-carboxamide] | ≤25% (≤25% for 0-25% of IKZF1 protein reduction)
< 5 | Nc1sccc1C(=O)NC1CCC(=O)NC1=O (stereo not shown) [Compound 36, 2-amino-N-(2,6-dioxopiperidin-3-yl)thiophene-3-carboxamide] | ≤25% (≤25% for 0-25% of IKZF1 protein reduction)
< 5 | COc1sc(Cl)cc1C(=O)NC1CCC(=O)NC1=O (stereo not shown) [Compound 37, 5-chloro-N-(2,6-dioxopiperidin-3-yl)-2-methoxythiophene-3-carboxamide] | ≤25% (≤25% for 0-25% of IKZF1 protein reduction)
< 5 | Nc1sc(Cl)cc1C(=O)NC1CCC(=O)NC1=O (stereo not shown) [Compound 40, 2-amino-5-chloro-N-(2,6-dioxopiperidin-3-yl)thiophene-3-carboxamide] | ≤25% (≤25% for 0-25% of IKZF1 protein reduction)
< 5 | CC(=O)Nc1sc(C2CC2)cc1C(=O)NC1CCC(=O)NC1=O (stereo not shown) [Compound 44, 5-cyclopropyl-N-(2,6-dioxopiperidin-3-yl)-2-acetamidothiophene-3-carboxamide] | ≤25% (≤25% for 0-25% of IKZF1 protein reduction)
< 5 | COc1sc(N)nc1C(=O)NC1CCC(=O)NC1=O (stereo not shown) [Compound 80, 2-amino-N-(2,6-dioxopiperidin-3-yl)-5-methoxythiazole-4-carboxamide] | –
< 5 | O=C1CCC(NC(=O)c2sc(Br)c3cccnc23)C(=O)N1 (stereo not shown) [Compound 96] | –
